Test results: patent US20120122860A1, “SOLID FORMS OF SULFONAMIDES AND AMINO ACIDS” (Plexxikon, Inc., priority 2009, published 2012)

Assays:
[1] = target: B-Raf (Homo sapiens, UniProt P15056); assay: Kinase activity assay, B-Raf; format: biochemical; details: read-out: activity toward kinase B-Raf, IC50
[2] = target: B-Raf V600E (Homo sapiens, UniProt P15056, V600E); assay: Kinase activity assay, B-Raf V600E; format: biochemical; details: read-out: activity toward kinase B-Raf V600E, IC50
[3] = target: Kdr (Homo sapiens, UniProt P35968); assay: Kinase activity assay, Kdr
Kdr, sequence (P35968 20-1356): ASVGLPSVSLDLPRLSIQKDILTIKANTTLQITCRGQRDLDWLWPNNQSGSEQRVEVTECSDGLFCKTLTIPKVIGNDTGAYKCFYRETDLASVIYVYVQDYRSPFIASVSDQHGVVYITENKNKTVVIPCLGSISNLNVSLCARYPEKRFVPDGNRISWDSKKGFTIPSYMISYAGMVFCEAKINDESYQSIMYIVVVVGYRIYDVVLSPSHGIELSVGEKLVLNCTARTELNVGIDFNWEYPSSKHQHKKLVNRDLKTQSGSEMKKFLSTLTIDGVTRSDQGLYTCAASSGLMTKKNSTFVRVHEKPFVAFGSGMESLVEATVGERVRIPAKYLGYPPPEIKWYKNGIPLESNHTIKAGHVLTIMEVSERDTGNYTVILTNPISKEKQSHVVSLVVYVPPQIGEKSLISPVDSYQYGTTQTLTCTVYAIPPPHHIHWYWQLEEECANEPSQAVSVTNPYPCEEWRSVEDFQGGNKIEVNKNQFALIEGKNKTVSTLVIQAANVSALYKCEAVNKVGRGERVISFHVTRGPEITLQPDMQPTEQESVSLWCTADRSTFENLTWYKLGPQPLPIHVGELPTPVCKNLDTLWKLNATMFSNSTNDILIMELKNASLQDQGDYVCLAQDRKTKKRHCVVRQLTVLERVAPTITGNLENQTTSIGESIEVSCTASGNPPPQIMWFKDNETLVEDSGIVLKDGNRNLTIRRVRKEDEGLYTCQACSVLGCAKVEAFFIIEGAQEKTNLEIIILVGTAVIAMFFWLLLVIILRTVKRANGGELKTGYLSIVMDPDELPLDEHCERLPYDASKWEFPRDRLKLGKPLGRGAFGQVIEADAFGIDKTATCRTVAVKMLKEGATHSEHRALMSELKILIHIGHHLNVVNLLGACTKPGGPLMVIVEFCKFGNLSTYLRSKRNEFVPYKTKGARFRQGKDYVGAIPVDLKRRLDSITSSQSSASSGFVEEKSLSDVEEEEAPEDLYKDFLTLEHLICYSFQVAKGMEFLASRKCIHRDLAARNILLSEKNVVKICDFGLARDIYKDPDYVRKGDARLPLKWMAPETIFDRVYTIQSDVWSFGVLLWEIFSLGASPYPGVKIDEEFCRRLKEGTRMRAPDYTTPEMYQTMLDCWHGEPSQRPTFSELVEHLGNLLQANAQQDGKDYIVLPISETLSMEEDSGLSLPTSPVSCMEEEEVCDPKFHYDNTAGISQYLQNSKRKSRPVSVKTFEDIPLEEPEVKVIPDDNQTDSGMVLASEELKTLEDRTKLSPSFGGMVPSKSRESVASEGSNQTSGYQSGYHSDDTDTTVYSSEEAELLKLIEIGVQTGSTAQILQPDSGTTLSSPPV

[4] = target: Src (Homo sapiens, UniProt P12931); assay: Kinase activity assay, Src
Src, sequence (P12931 whole entry): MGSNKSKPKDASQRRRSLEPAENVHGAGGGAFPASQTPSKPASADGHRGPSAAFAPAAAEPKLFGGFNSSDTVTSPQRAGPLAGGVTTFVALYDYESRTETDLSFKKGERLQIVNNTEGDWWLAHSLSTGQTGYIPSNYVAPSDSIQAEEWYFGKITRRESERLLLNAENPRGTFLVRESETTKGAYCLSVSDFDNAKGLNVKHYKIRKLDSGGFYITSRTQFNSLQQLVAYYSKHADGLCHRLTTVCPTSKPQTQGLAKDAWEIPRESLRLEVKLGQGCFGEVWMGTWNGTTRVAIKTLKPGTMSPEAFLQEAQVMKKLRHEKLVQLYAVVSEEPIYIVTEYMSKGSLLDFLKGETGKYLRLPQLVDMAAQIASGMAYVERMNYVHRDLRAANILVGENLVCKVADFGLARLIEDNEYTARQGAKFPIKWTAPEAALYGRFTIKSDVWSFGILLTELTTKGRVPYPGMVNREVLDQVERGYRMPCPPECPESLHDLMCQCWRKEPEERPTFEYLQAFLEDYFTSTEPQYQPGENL

[5] = target: T1, TEC (Homo sapiens, UniProt P42680); assay: Kinase activity assay, TEC
T1 sequence (P42680 1-631): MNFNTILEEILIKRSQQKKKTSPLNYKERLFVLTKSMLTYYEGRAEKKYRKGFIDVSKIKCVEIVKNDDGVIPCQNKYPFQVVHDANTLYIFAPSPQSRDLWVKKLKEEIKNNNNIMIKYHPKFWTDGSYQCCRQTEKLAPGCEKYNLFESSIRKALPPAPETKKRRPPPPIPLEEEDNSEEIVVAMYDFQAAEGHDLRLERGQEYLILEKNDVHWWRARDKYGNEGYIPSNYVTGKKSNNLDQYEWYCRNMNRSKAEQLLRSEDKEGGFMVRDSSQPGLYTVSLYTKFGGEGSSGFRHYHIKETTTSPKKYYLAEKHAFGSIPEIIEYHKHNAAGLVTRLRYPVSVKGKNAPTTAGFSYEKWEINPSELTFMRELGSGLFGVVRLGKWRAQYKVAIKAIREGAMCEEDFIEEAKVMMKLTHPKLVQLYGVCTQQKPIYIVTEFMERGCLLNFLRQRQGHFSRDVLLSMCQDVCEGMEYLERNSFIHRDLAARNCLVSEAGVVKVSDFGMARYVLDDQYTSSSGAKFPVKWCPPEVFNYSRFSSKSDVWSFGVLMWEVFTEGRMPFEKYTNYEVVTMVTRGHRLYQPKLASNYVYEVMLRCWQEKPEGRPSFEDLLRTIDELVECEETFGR

[6] = target: C-Raf (Homo sapiens, UniProt P04049); assay: Kinase activity assay, C-Raf
[7] = target: Fms (Homo sapiens, UniProt P07333); assay: Kinase activity assay, Fms
Fms, sequence (P07333 20-972): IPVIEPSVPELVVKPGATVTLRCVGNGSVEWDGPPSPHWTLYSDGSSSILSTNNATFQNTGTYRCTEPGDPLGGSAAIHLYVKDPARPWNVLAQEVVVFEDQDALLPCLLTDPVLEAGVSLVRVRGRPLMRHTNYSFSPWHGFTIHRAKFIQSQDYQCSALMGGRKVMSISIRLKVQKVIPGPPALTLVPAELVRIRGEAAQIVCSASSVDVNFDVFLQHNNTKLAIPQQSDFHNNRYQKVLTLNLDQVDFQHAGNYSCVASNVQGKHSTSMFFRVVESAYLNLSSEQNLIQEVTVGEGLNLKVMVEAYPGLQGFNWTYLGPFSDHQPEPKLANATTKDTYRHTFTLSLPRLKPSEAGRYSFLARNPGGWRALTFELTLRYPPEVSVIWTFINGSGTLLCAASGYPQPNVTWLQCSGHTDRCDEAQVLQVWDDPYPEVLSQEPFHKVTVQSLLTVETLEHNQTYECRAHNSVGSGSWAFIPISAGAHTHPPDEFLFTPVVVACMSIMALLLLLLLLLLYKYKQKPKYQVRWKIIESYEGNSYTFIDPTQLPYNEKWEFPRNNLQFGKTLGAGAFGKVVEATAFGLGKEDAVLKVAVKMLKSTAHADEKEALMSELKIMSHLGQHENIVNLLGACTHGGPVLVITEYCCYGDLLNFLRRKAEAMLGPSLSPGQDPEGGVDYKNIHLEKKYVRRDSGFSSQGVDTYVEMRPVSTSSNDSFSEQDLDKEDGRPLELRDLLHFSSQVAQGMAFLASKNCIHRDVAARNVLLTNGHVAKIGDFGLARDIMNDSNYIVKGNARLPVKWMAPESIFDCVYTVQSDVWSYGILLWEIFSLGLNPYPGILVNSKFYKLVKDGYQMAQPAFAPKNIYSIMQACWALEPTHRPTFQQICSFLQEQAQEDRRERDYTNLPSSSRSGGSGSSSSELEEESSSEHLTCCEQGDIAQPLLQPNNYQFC

[8] = target: Kit (Homo sapiens, UniProt P10721); assay: Kinase activity assay, Kit
[9] = target: T2, A-Raf (Homo sapiens, UniProt P10398); assay: Kinase activity assay, A-Raf
T2 sequence (P10398 1-606): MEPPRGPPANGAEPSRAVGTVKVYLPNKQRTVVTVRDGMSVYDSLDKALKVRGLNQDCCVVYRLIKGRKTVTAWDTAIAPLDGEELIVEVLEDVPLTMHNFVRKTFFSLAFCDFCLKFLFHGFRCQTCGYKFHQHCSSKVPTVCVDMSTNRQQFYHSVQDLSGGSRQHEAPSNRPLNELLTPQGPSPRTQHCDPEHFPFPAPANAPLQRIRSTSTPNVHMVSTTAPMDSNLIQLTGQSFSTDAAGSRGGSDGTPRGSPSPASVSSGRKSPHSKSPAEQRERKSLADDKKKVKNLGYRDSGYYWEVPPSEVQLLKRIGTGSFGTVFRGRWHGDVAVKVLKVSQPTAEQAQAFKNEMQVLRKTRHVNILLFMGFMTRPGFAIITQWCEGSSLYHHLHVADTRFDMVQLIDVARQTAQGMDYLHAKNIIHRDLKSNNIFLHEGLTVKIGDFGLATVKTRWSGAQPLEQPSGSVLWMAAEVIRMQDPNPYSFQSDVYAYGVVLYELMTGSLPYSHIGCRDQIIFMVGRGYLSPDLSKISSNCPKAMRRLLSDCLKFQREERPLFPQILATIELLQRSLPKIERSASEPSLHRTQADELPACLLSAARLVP

[10] = target: MAP4K4 (Homo sapiens, UniProt O95819); assay: Kinase activity assay, MAP4K4
MAP4K4, sequence (O95819 whole entry): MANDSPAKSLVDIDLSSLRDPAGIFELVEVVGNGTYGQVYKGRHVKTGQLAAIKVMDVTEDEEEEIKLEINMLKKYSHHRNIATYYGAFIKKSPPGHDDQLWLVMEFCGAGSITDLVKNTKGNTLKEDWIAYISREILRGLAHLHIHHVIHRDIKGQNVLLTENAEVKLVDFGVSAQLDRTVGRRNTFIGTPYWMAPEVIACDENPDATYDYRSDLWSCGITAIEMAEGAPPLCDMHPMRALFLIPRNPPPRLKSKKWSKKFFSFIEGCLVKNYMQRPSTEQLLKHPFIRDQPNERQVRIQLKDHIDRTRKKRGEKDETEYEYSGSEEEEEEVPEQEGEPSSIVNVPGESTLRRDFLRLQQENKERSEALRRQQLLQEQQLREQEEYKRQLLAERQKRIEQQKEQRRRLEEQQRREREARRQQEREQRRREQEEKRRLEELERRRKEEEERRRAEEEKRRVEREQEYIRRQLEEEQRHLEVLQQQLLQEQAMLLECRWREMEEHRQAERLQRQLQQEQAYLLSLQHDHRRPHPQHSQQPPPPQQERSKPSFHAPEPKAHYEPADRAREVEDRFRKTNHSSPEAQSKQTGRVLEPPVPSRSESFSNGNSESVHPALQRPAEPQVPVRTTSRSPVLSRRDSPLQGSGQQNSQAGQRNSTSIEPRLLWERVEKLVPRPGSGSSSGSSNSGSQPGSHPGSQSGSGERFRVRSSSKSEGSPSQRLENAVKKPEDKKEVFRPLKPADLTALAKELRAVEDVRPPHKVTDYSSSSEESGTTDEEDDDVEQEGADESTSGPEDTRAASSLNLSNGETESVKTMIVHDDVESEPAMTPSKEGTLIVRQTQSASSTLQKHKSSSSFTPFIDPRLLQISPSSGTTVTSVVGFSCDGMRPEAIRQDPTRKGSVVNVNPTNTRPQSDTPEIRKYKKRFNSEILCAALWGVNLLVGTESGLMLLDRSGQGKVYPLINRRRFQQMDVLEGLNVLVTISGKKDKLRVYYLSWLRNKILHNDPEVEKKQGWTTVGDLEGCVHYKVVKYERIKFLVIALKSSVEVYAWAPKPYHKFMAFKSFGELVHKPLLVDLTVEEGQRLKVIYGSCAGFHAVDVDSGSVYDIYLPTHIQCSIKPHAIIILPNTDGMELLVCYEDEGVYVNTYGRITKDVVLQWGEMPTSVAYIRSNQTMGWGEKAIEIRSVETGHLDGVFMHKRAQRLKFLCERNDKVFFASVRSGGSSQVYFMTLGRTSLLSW

B-Raf V600E, sequence (P15056 whole entry V600E): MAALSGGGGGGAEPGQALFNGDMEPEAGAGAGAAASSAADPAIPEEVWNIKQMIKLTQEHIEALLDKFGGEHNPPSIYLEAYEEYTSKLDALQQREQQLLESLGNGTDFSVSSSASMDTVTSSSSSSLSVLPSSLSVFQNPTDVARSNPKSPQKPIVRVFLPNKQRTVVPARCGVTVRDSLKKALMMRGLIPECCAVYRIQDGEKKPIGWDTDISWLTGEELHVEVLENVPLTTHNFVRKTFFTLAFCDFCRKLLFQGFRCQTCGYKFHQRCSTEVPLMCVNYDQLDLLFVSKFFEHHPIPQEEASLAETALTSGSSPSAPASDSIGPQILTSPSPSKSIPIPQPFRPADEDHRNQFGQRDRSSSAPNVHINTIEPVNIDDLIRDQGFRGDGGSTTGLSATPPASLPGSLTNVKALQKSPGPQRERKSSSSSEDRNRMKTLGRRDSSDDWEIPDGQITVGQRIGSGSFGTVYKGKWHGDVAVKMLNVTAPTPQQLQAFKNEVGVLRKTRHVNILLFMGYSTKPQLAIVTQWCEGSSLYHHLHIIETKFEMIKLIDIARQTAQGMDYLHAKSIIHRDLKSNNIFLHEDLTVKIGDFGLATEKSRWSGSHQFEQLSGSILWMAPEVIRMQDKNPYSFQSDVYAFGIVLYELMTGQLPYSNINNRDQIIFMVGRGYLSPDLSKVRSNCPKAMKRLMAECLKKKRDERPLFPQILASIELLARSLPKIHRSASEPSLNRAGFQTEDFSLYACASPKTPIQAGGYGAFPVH
B-Raf, sequence (P15056 whole entry): as the sequence (P15056 whole entry V600E) above, with E600V counted along it

Structure (SMILES) | IC50 [1] | IC50 [2] | IC50 [3] | IC50 [4] | IC50 [5] | IC50 [6] | IC50 [7] | IC50 [8] | IC50 [9] | IC50 [10]
CCCS(=O)(=O)Nc1ccc(F)c(C(=O)c2c[nH]c3ncc(CCC(=O)OC)cc23)c1F [P-2230, 3-{3-[2,6-Difluoro-3-(propane-1-sulfonylamino)-benzoyl]-1H-pyrrolo[2,3-b]pyridin-5-yl}-propionic acid methyl ester] | ≤ 10 µM | ≤ 10 µM | ≤ 10 µM | ≤ 10 µM |  | ≤ 10 µM | ≤ 10 µM | ≤ 10 µM | ≤ 10 µM | ≤ 10 µM
CCCS(=O)(=O)Nc1ccc(F)c(C(=O)c2c[nH]c3ncc(-c4ccc(OCCN5CCOCC5)nc4)cc23)c1F [P-2232, Propane-1-sulfonic acid (2,4-difluoro-3-{5-[6-(2-morpholin-4-yl-ethoxy)-pyridin-3-yl]-1H-pyrrolo[2,3-b]pyridine-3-carbonyl}-phenyl)-amide] | ≤ 10 µM | ≤ 10 µM | ≤ 10 µM | ≤ 10 µM |  | ≤ 10 µM | ≤ 10 µM | ≤ 10 µM | ≤ 10 µM | ≤ 10 µM
COc1cnc2[nH]cc(C(=O)c3c(F)ccc(NS(=O)(=O)c4cc(F)ccc4F)c3F)c2c1 [P-2010, N-[2,4-Difluoro-3-(5-methoxy-1H-pyrrolo[2,3-b]pyridine-3-carbonyl)-phenyl]-2,5-difluoro-benzenesulfonamide] | ≤ 10 µM | ≤ 10 µM | ≤ 10 µM | ≤ 10 µM |  | ≤ 10 µM | ≤ 10 µM | ≤ 10 µM | ≤ 10 µM | ≤ 10 µM
N#Cc1cnc2[nH]cc(C(=O)c3c(F)ccc(NS(=O)(=O)c4cccnc4)c3F)c2c1 [P-2072, Pyridine-3-sulfonic acid [3-(5-cyano-1H-pyrrolo[2,3-b]pyridine-3-carbonyl)-2,4-difluoro-phenyl]-amide] | ≤ 10 µM | ≤ 10 µM |  |  | ≤ 10 µM | ≤ 10 µM |  |  |  | 
O=C(c1c(F)ccc(NS(=O)(=O)c2cc(F)ccc2F)c1F)c1c[nH]c2nccc(Cl)c12 [P-2018, N-[3-(4-Chloro-1H-pyrrolo[2,3-b]pyridine-3-carbonyl)-2,4-difluoro-phenyl]-2,5-difluoro-benzenesulfonamide] | ≤ 10 µM | ≤ 10 µM | ≤ 10 µM | ≤ 10 µM |  | ≤ 10 µM | ≤ 10 µM | ≤ 10 µM | ≤ 10 µM | ≤ 10 µM
Cc1cnc2[nH]cc(C(=O)c3c(F)ccc(NS(=O)(=O)c4cc(F)ccc4F)c3F)c2c1 [P-2015, N-[2,4-Difluoro-3-(5-methyl-1H-pyrrolo[2,3-b]pyridine-3-carbonyl)-phenyl]-2,5-difluoro-benzenesulfonamide] | ≤ 10 µM | ≤ 10 µM | ≤ 10 µM | ≤ 10 µM |  | ≤ 10 µM | ≤ 10 µM | ≤ 10 µM | ≤ 10 µM | ≤ 10 µM
O=C(c1c(F)ccc(NS(=O)(=O)c2cc(F)ccc2F)c1F)c1c[nH]c2ncc(Cl)cc12 [P-2002, N-[3-(5-Chloro-1H-pyrrolo[2,3-b]pyridine-3-carbonyl)-2,4-difluoro-phenyl]-2,5-difluoro-benzenesulfonamide] | ≤ 10 µM | ≤ 10 µM | ≤ 10 µM | ≤ 10 µM |  | ≤ 10 µM | ≤ 10 µM | ≤ 10 µM | ≤ 10 µM | ≤ 10 µM

Now from value to compound:

IC50 [1] | IC50 [2] | IC50 [3] | IC50 [4] | IC50 [5] | IC50 [6] | IC50 [7] | IC50 [8] | IC50 [9] | IC50 [10] | Structure (SMILES)
≤ 10 µM | ≤ 10 µM | ≤ 10 µM | ≤ 10 µM | ≤ 10 µM | ≤ 10 µM |  |  |  |  | COc1ccnc2[nH]cc(C(=O)c3c(F)ccc(NS(=O)(=O)N4CCCC4)c3F)c12 [P-2377, Pyrrolidine-1-sulfonic acid [2,4-difluoro-3-(4-methoxy-1H-pyrrolo[2,3-b]pyridine-3-carbonyl)-phenyl]-amide]
≤ 10 µM | ≤ 10 µM | ≤ 10 µM | ≤ 10 µM |  | ≤ 10 µM | ≤ 10 µM | ≤ 10 µM | ≤ 10 µM | ≤ 10 µM | CCCS(=O)(=O)Nc1ccc(F)c(C(=O)c2c[nH]c3ncc(-c4ccc(OCCN5CCCC5)nc4)cc23)c1F [P-2233, Propane-1-sulfonic acid (2,4-difluoro-3-{5-[6-(2-pyrrolidin-1-yl-ethoxy)-pyridin-3-yl]-1H-pyrrolo[2,3-b]pyridine-3-carbonyl}-phenyl)-amide]
≤ 10 µM | ≤ 10 µM |  |  | ≤ 10 µM | ≤ 10 µM |  | ≤ 10 µM |  |  | CC(C)S(=O)(=O)Nc1ccc(F)c(C(=O)c2c[nH]c3ncc(C#N)cc23)c1F [P-2282, Propane-2-sulfonic acid [3-(5-cyano-1H-pyrrolo[2,3-b]pyridine-3-carbonyl)-2,4-difluoro-phenyl]-amide]
 | ≤ 10 µM | ≤ 10 µM | ≤ 10 µM | ≤ 10 µM |  |  |  |  |  | CCN(CC)S(=O)(=O)Nc1ccc(F)c(C(=O)c2c[nH]c3nccc(OC)c23)c1F [P-2378, N,N-diethylamino-sulfonic acid [2,4-difluoro-3-(4-methoxy-1H-pyrrolo[2,3-b]pyridine-3-carbonyl)-phenyl]-amide]
≤ 10 µM | ≤ 10 µM | ≤ 10 µM | ≤ 10 µM |  | ≤ 10 µM | ≤ 10 µM | ≤ 10 µM | ≤ 10 µM | ≤ 10 µM | CCCS(=O)(=O)Nc1ccc(F)c(C(=O)c2c[nH]c3ncc(-c4ccc(OCCCN5CCOCC5)nc4)cc23)c1F [P-2236, Propane-1-sulfonic acid (2,4-difluoro-3-{5-[6-(3-morpholin-4-yl-propoxy)-pyridin-3-yl]-1H-pyrrolo[2,3-b]pyridine-3-carbonyl}-phenyl)-amide]
≤ 10 µM | ≤ 10 µM |  |  | ≤ 10 µM | ≤ 10 µM |  | ≤ 10 µM |  |  | CC(C)CS(=O)(=O)Nc1ccc(F)c(C(=O)c2c[nH]c3ncc(C#N)cc23)c1F [P-2307, 2-Methyl-propane-1-sulfonic acid [3-(5-cyano-1H-pyrrolo[2,3-b]pyridine-3-carbonyl)-2,4-difluoro-phenyl]-amide]
≤ 10 µM | ≤ 10 µM | ≤ 10 µM | ≤ 10 µM | ≤ 10 µM | ≤ 10 µM |  |  |  |  | CCC(C)S(=O)(=O)Nc1ccc(F)c(C(=O)c2c[nH]c3nccc(OC)c23)c1F (stereo not shown) [P-2313, Butane-2-sulfonic acid [2,4-difluoro-3-(4-methoxy-1H-pyrrolo[2,3-b]pyridine-3-carbonyl)-phenyl]-amide]
≤ 10 µM | ≤ 10 µM |  | ≤ 10 µM | ≤ 10 µM | ≤ 10 µM |  |  |  |  | COc1ccnc2[nH]cc(C(=O)c3c(F)ccc(NS(=O)(=O)CCC(F)(F)F)c3F)c12 [P-2330, 3,3,3-Trifluoro-propane-1-sulfonic acid [2,4-difluoro-3-(4-methoxy-1H-pyrrolo[2,3-b]pyridine-3-carbonyl)-phenyl]-amide]
≤ 10 µM | ≤ 10 µM | ≤ 10 µM |  | ≤ 10 µM | ≤ 10 µM |  |  |  |  | N#Cc1cnc2[nH]cc(C(=O)c3cccc(NS(=O)(=O)C4CCCC4)c3F)c2c1 [P-2417, Cyclopentanesulfonic acid [3-(5-cyano-1H-pyrrolo[2,3-b]pyridine-3-carbonyl)-2-fluoro-phenyl]-amide]
